ChEMBL document CHEMBL3861943 (Medchemcomm, 2016)

Columns and labels:
[1] = target: Dihydroorotate dehydrogenase (quinone), mitochondrial (Homo sapiens, UniProt Q02127); experiment: Inhibition of recombinant human DHODH by DCIP-based assay; format: single protein
[2] = Cytotoxicity against human HCT116 cells assessed as decrease in cell proliferation after 72 hrs by MTT reduction assay; format: functional, cell-based; conditions: HCT-116, 72 h
[3] = Cytotoxicity against human BxPC3 cells assessed as decrease in cell proliferation after 72 hrs by MTT reduction assay; format: functional, cell-based; conditions: BXPC-3, 72 h
[4] = Cytotoxicity against human WI38 cells assessed as decrease in cell proliferation after 72 hrs by MTT reduction assay; format: toxicity, cell-based, WI-38
HCT-116 [5] = experiment: Induction of apoptosis in human HCT116 cells assessed as early apoptotic cells at 0.2 uM after 24 hrs by annexin V-FITC/propidium iodide staining-based flow cytometric method (reference value: 2.25%); format: functional
HCT-116 [6] = experiment: Induction of apoptosis in human HCT116 cells assessed as late apoptotic cells at 0.2 uM after 24 hrs by annexin V-FITC/propidium iodide staining-based flow cytometric method (reference value: 3.84%); format: functional
HCT-116 [7] = experiment: Induction of apoptosis in human HCT116 cells assessed as necrotic cells at 0.2 uM after 24 hrs by annexin V-FITC/propidium iodide staining-based flow cytometric method (reference value: 2.14%); format: functional
HCT-116 [8] = experiment: Induction of apoptosis in human HCT116 cells assessed as viable cells at 0.2 uM after 24 hrs by annexin V-FITC/propidium iodide staining-based flow cytometric method (reference value: 91.8%); format: functional; conditions: HCT-116, 24 h, read-out: Activity
HCT-116 [9] = experiment: Induction of apoptosis in human HCT116 cells assessed as early apoptotic cells at 0.2 uM after 36 hrs by annexin V-FITC/propidium iodide staining-based flow cytometric method (reference value: 2.25%); format: functional
HCT-116 [10] = experiment: Induction of apoptosis in human HCT116 cells assessed as late apoptotic cells at 0.2 uM after 36 hrs by annexin V-FITC/propidium iodide staining-based flow cytometric method (reference value: 3.84%); format: functional
HCT-116 [11] = experiment: Induction of apoptosis in human HCT116 cells assessed as necrotic cells at 0.2 uM after 36 hrs by annexin V-FITC/propidium iodide staining-based flow cytometric method (reference value: 2.14%); format: functional
HCT-116 [12] = experiment: Induction of apoptosis in human HCT116 cells assessed as viable cells at 0.2 uM after 36 hrs by annexin V-FITC/propidium iodide staining-based flow cytometric method (reference value: 91.8%); format: functional; conditions: HCT-116, 36 h, read-out: Activity
HCT-116 [13] = experiment: Induction of apoptosis in human HCT116 cells assessed as early apoptotic cells at 0.2 uM after 48 hrs by annexin V-FITC/propidium iodide staining-based flow cytometric method (reference value: 2.25%); format: functional
HCT-116 [14] = experiment: Induction of apoptosis in human HCT116 cells assessed as late apoptotic cells at 0.2 uM after 48 hrs by annexin V-FITC/propidium iodide staining-based flow cytometric method (reference value: 3.84%); format: functional
HCT-116 [15] = experiment: Induction of apoptosis in human HCT116 cells assessed as necrotic cells at 0.2 uM after 48 hrs by annexin V-FITC/propidium iodide staining-based flow cytometric method (reference value: 2.14%); format: functional
HCT-116 [16] = experiment: Induction of apoptosis in human HCT116 cells assessed as viable cells at 0.2 uM after 48 hrs by annexin V-FITC/propidium iodide staining-based flow cytometric method (reference value: 91.8%); format: functional; conditions: HCT-116, 48 h, read-out: Activity
BXPC-3 [17] = experiment: Induction of apoptosis in human BxPC3 cells assessed as early apoptotic cells at 0.2 uM after 24 hrs by annexin V-FITC/propidium iodide staining-based flow cytometric method (reference value: 0.344%); format: functional
BXPC-3 [18] = experiment: Induction of apoptosis in human BxPC3 cells assessed as late apoptotic cells at 0.2 uM after 24 hrs by annexin V-FITC/propidium iodide staining-based flow cytometric method (reference value: 6.73%); format: functional
BXPC-3 [19] = experiment: Induction of apoptosis in human BxPC3 cells assessed as necrotic cells at 0.2 uM after 24 hrs by annexin V-FITC/propidium iodide staining-based flow cytometric method (reference value: 1.15%); format: functional
BXPC-3 [20] = experiment: Induction of apoptosis in human BxPC3 cells assessed as viable cells at 0.2 uM after 24 hrs by annexin V-FITC/propidium iodide staining-based flow cytometric method (reference value: 91.8%); format: functional; conditions: BXPC-3, 24 h, read-out: Activity
BXPC-3 [21] = experiment: Induction of apoptosis in human BxPC3 cells assessed as early apoptotic cells at 0.2 uM after 36 hrs by annexin V-FITC/propidium iodide staining-based flow cytometric method (reference value: 0.344%); format: functional
BXPC-3 [22] = experiment: Induction of apoptosis in human BxPC3 cells assessed as late apoptotic cells at 0.2 uM after 36 hrs by annexin V-FITC/propidium iodide staining-based flow cytometric method (reference value: 6.73%); format: functional
BXPC-3 [23] = experiment: Induction of apoptosis in human BxPC3 cells assessed as necrotic cells at 0.2 uM after 36 hrs by annexin V-FITC/propidium iodide staining-based flow cytometric method (reference value: 1.15%); format: functional
BXPC-3 [24] = experiment: Induction of apoptosis in human BxPC3 cells assessed as viable cells at 0.2 uM after 36 hrs by annexin V-FITC/propidium iodide staining-based flow cytometric method (reference value: 91.8%); format: functional; conditions: BXPC-3, 36 h, read-out: Activity
BXPC-3 [25] = experiment: Induction of apoptosis in human BxPC3 cells assessed as early apoptotic cells at 0.2 uM after 48 hrs by annexin V-FITC/propidium iodide staining-based flow cytometric method (reference value: 0.344%); format: functional
BXPC-3 [26] = experiment: Induction of apoptosis in human BxPC3 cells assessed as late apoptotic cells at 0.2 uM after 48 hrs by annexin V-FITC/propidium iodide staining-based flow cytometric method (reference value: 6.73%); format: functional
BXPC-3 [27] = experiment: Induction of apoptosis in human BxPC3 cells assessed as necrotic cells at 0.2 uM after 48 hrs by annexin V-FITC/propidium iodide staining-based flow cytometric method (reference value: 1.15%); format: functional
BXPC-3 [28] = experiment: Induction of apoptosis in human BxPC3 cells assessed as viable cells at 0.2 uM after 48 hrs by annexin V-FITC/propidium iodide staining-based flow cytometric method (reference value: 91.8%); format: functional; conditions: BXPC-3, 48 h, read-out: Activity

Chain of Dihydroorotate dehydrogenase (quinone), mitochondrial (Q02127 whole entry): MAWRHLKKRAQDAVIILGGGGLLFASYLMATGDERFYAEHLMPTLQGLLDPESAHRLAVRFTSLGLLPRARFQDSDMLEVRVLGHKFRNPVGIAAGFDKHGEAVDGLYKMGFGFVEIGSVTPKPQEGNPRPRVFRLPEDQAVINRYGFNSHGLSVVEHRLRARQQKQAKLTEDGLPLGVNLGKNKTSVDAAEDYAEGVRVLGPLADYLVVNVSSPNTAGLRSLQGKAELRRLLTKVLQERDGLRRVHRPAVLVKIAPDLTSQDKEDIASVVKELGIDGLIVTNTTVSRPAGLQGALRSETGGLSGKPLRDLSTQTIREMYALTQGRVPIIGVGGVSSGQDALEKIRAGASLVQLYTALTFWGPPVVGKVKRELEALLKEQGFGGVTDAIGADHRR

O=C(O)c1ccccc1/C=N/Nc1nc(-c2ccccc2)cs1 showed an IC50 [1] of 0.139 µM, an IC50 [2] of 0.88 µM and an IC50 [3] of 18.9 µM. It also gave an IC50 at 72 h [4] of 34.2 µM.
For Cc1sc(N/N=C/c2ccccc2C(=O)O)nc1-c1ccccc1, the IC50 [2] was 6.42 µM, the IC50 [3] was 19.8 µM and the IC50 at 72 h [4] was 21.5 µM.
For CN(/N=C/c1ccc(C(F)(F)F)cc1C(=O)O)c1nc(-c2ccccc2Cl)cs1, the IC50 [2] was 2 µM, the IC50 [3] was 2.98 µM and the IC50 at 72 h [4] was 60.9 µM.
With Cc1sc(N/N=C/c2ccccc2C(=O)O)nc1-c1ccccc1Cl the IC50 [2] was 0.375 µM, the IC50 [3] was 2.97 µM and the IC50 at 72 h [4] was 44.6 µM.
Work on Cc1c(-c2ccc(-c3ccccc3F)cc2)nc2ccc(F)cc2c1C(=O)O [BREQUINAR SODIUM] yielded an IC50 [2] of 0.158 µM, an IC50 [3] of 0.94 µM and an IC50 at 72 h [4] of 34 µM.
CCCN(/N=C/c1ccccc1C(=O)O)c1nc(-c2ccccc2Cl)cs1 showed an IC50 [1] of 0.009 µM, an IC50 [2] of 0.276 µM and an IC50 [3] of 0.263 µM. The IC50 at 72 h [4] was 10.8 µM.
Work on CN(/N=C/c1ccccc1C(=O)O)c1nc(-c2cccc(Cl)c2)cs1 yielded an IC50 [2] of 0.268 µM, an IC50 [3] of 1.59 µM and an IC50 at 72 h [4] of 6.57 µM.
For CN(/N=C/c1ccccc1C(=O)O)c1nc(-c2ccccc2Cl)cs1, the IC50 [1] was 0.008 µM, the IC50 [2] was 0.031 µM and the IC50 [3] was 0.08 µM. For the same compound, the IC50 at 72 h [4] was 9.58 µM.
In the case of CCCC(C)N(/N=C/c1ccccc1C(=O)O)c1nc(-c2ccccc2Cl)cs1 (centres undefined), the IC50 [2] is reported as 0.588 µM, the IC50 [3] is reported as 0.988 µM and the IC50 at 72 h [4] is reported as 29.1 µM.
With CN(/N=C/c1ccc(F)cc1C(=O)O)c1nc(-c2ccccc2Cl)cs1 the IC50 [1] was 0.002 µM, the IC50 [2] was 0.023 µM and the IC50 [3] was 0.088 µM. For the same compound, the IC50 at 72 h [4] was 29.7 µM, the Activity (HCT-116 [5]) was 3.11% and the Activity (HCT-116 [6]) was 3.11%. For the same compound, the Activity (HCT-116 [7]) was 1.78%, the viability at 0.2 µM (HCT-116 [8]) was 92% and the Activity (HCT-116 [9]) was 4.54%. The Activity (HCT-116 [10]) was 7.5%, the Activity (HCT-116 [11]) was 1.46% and the viability at 0.2 µM (HCT-116 [12]) was 86.5%. It also gave an Activity (HCT-116 [13]) of 4.59%, an Activity (HCT-116 [14]) of 25.4% and an Activity (HCT-116 [15]) of 1.67%. For the same compound, the viability at 0.2 µM (HCT-116 [16]) was 68.3%, the Activity (BXPC-3 [17]) was 1.01% and the Activity (BXPC-3 [18]) was 15.4%. It also gave an Activity (BXPC-3 [19]) of 3.23%, a viability at 0.2 µM (BXPC-3 [20]) of 80.4% and an Activity (BXPC-3 [21]) of 0.701%. It also gave an Activity (BXPC-3 [22]) of 52.6%, an Activity (BXPC-3 [23]) of 7.38% and a viability at 0.2 µM (BXPC-3 [24]) of 39.3%. The Activity (BXPC-3 [25]) was 0.392%, the Activity (BXPC-3 [26]) was 93.2% and the Activity (BXPC-3 [27]) was 1.59%. It also gave a viability at 0.2 µM (BXPC-3 [28]) of 4.8%.
In the case of Cc1ccc(/C=N/N(C)c2nc(-c3ccccc3)c(C)s2)c(C(=O)O)c1, the IC50 [2] is reported as 0.087 µM, the IC50 [3] is reported as 0.3 µM and the IC50 at 72 h [4] is reported as 41.8 µM.
Cc1ccc(/C=N/N(C)c2nc(-c3ccccc3Cl)cs2)c(C(=O)O)c1 gave an IC50 [1] of 0.008 µM, an IC50 [2] of 0.054 µM and an IC50 [3] of 0.203 µM. It also gave an IC50 at 72 h [4] of 17 µM.
CCc1sc(N/N=C/c2ccccc2C(=O)O)nc1-c1ccccc1Cl gave an IC50 [2] of 0.922 µM, an IC50 [3] of 2.79 µM and an IC50 at 72 h [4] of 22.4 µM.
For CN(/N=C/c1ccccc1C(=O)O)c1nc(-c2cc(Cl)ccc2Cl)cs1, the IC50 [2] was 0.301 µM, the IC50 [3] was 1.61 µM and the IC50 at 72 h [4] was 61 µM.
Work on O=C(O)c1ccccc1/C=N/N(CCO)c1nc(-c2ccccc2Cl)cs1 yielded an IC50 [1] of 0.425 µM, an IC50 [2] of 0.763 µM and an IC50 [3] of 4.32 µM. For the same compound, the IC50 at 72 h [4] was 48.7 µM.
Work on CCCC(C)N(/N=C/c1ccccc1C(=O)O)c1nc(-c2ccccc2Cl)c(C)s1 (centres undefined) yielded an IC50 [2] of 0.181 µM, an IC50 [3] of 0.801 µM and an IC50 at 72 h [4] of 10.1 µM.
CCN(/N=C/c1ccccc1C(=O)O)c1nc(-c2ccccc2Cl)cs1 gave an IC50 [1] of 0.059 µM, an IC50 [2] of 0.299 µM and an IC50 [3] of 0.199 µM. For the same compound, the IC50 at 72 h [4] was 9.98 µM.
With CC(C)N(/N=C/c1ccccc1C(=O)O)c1nc(-c2ccccc2Cl)cs1 the IC50 [1] was 0.093 µM, the IC50 [2] was 0.108 µM and the IC50 [3] was 0.312 µM. It also gave an IC50 at 72 h [4] of 18.8 µM.
Compound O=C(O)c1ccccc1/C=N/Nc1nc(-c2ccccc2Cl)cs1 has an IC50 [1] of 0.029 µM, an IC50 [2] of 0.713 µM and an IC50 [3] of 3.41 µM. The IC50 at 72 h [4] was 39.1 µM.
For CCC(C)N(/N=C/c1ccccc1C(=O)O)c1nc(-c2ccccc2Cl)cs1 (centres undefined), the IC50 [1] was 0.024 µM, the IC50 [2] was 0.244 µM and the IC50 [3] was 0.536 µM. For the same compound, the IC50 at 72 h [4] was 8.3 µM.
